Results as given in patent US7544675B2, “Chemical compounds with dual activity, processes for their preparation and pharmaceutical compositions” (UCB, S.A., priority 2002, dated 2009).

Experiments:
[1] = biological target: T1, human m3 muscarinic receptor (Homo sapiens, UniProt P20309); assay: Affinity for human muscarinic receptors ([3H]-NMS binding, CHO cell membranes); conditions: qualitative statement
T1 construct: expressed in transfected cells; host or cells: CHO (Chinese Hamster Ovarian) cells, crude membrane fraction
T1 sequence (P20309 whole entry): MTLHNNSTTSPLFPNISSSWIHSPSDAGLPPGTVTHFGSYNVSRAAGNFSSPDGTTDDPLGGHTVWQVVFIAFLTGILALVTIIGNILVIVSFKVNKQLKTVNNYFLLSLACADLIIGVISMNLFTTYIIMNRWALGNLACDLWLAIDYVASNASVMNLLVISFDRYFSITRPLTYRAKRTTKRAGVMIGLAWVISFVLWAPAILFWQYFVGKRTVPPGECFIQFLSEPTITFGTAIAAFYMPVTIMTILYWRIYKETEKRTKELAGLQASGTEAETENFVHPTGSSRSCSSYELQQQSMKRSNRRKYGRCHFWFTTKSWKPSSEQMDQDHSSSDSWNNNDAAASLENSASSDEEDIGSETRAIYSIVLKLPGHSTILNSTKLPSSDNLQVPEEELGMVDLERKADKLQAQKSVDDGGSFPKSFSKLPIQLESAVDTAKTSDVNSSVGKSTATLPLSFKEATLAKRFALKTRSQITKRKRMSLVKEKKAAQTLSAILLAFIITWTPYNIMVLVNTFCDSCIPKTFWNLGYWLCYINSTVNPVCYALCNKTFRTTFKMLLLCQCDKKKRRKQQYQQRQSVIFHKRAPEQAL
Protocol: Chinese Hamster Ovarian cells (CHO) expressing the human recombinant m1, m2, m3, m4 and m5 receptors were cultured in Ham's F12 media supplemented with 100 IU/ml of penicillin, 100 μg/ml of streptomycin, 400 μg/ml of geneticin and 5% of fetal bovine serum. Cell cultures were maintained in a humidified incubator at 37° C. and 5% CO2.
Confluent CHO cells expressing human m1, m2, m3, m4 and m5 muscarinic receptors were harvested and resuspended in phosphate buffered saline without calcium and magnesium. The cell suspension was centrifuged at 1500×g for 3 min (4° C.). The cell pellet was homogenized in a 15 mM Tris-HCl (pH 7.5) buffer containing 2 mM MgCl2, 0.3 mM EDTA and 1 mM EGTA. The crude membrane fraction was collected by two consecutive centrifugation steps at 40,000×g for 25 min (4° C.). The final pellet was resuspended, at a protein concentration ranging from 2 to 6 mg/ml, in a 7.5 mM Tris-HCl (pH 7.5) buffer containing 12.5 mM MgCl2, 0.3 mM EDTA, 1 mM EGTA and 250 mM sucrose and stored in liquid nitrogen.
Binding assays were performed according to procedure described in: Buckley N. J., Bonner T. I., Buckley C. M., Brann M. R., Mol. Pharmacol. (1989), 35, 469-476, but with slight modifications.
Briefly, 25 to 50 μg of membrane proteins were incubated at room temperature in 1 ml of a 50 mM Tris-HCl (pH 7.4) buffer containing 2 mM of MgCl2, 0.1 nM of [^3H]-NMS (N-methylscopolamine, 85 Ci/mmol, from Apbiotech, UK) and increasing concentrations of test compound dissolved in DMSO (1% final concentration). Non specific binding was measured in the presence of 1 μM atropine. After 60 (m2) or 120 (m3) min. incubation, assays were stopped by rapid vacuum filtration of the samples through glass fiber filters (Filtermat A, Wallac, Belgium) presoaked in 0.3% polyethyleneimine for at least 2 h. Samples were further rinsed with 8 ml of ice-cold 50 mM Tris-HCl (pH 7.4) buffer. Radioactivity trapped onto the filter was counted in a Betaplate counter (Wallac). Competition binding curves were analyzed by non-linear regression with XLfit software (UDBS, UK).

[2] = system: PDE IV; assay: PDE IV enzymatic activity (SPA phosphodiesterase assay, cytosolic fraction from U937 cells); type: biochemical; conditions: qualitative statement
Protocol: Cytosolic fraction from U937 cells pre-stimulated for 4 h at 37° C. with a mixture of rolipram 30 μM and salbutamol 1 μM (Torphy T. J., Zhou H. L., Cieslinski L. B., J. Pharmacol. Exp. Ther. (1992), 263 (3), 1195-1205).
Assays were performed in 100 μL of 50 mM Tris HCl buffer (pH 7.4) containing 5 mM MgCl2, 2 mM EGTA, 20 nM of [^3H]-cAMP (40-60 Ci/mmol), the cytosolic fraction of 50,000 U937 cells and the appropriate concentration of test compound (usually 10 μM) dissolved in DMSO (final assay concentration not exceeding 1%). After 30 min incubation at room temperature, 0.5 mg of SPA yttrium silicate beads are added to each sample. Radioactivity bound to the beads (5′-AMP) is determined by liquid scintillation. Non PDE IV activity and/or non specific binding of the labeled substrate to the SPA beads is defined as the residual radioactivity remaining in the presence of rolipram 32 μM (non PDE IV activity represents about 40% of total activity). PDE IV activity is determined by subtracting the non PDE TV activity from the total activity.

| Structure (SMILES) | Dual high affinities: m3 receptor part [1] | Dual high affinities: PDE IV part [2] |
| --- | --- | --- |
| Cc1c(N2CCCCCC2)nc(C2CC2)nc1N1CC(C)C1 [Compound 185, 1-[2-cyclopropyl-5-methyl-6-(3-methylazetidin-1-yl)pyrimidin-4-yl]azepane] | high affinities | high affinities |
| Cc1c(NC2CC2)nc(C2CC2C)nc1N1CCC(C)CC1 (racemic) [Compound 98, N-cyclopropyl-5-methyl-2-(2-methylcyclopropyl)-6-(4-methyl-1-piperidinyl)-4-pyrimidinamine] | high affinities | high affinities |
| Cc1c(NC2CC2)nc(C2CC2)nc1N1CCC(C(F)(F)F)CC1 [Compound 77, N,2-dicyclopropyl-5-methyl-6-[4-(trifluoromethyl)piperidin-1-yl]-4-pyrimidinamine] | high affinities | high affinities |
| Cc1c(NC2CC2)nc(C2CC2)nc1N1CCSCC1 [Compound 119, N,2-dicyclopropyl-5-methyl-6-(4-thiomorpholinyl)-4-pyrimidinamine] | high affinities | high affinities |
| Cc1c(NC2CC2)nc(C2CC2)nc1N1CCCCC1 [Compound 175, N,2-dicyclopropyl-5-methyl-6-(1-piperidinyl)-4-pyrimidinamine] | high affinities | high affinities |
| C=C1CCN(c2nc(C3CC3)nc(NC3CC3)c2C)CC1 [Compound 106, N,2-dicyclopropyl-5-methyl-6-(4-methylene-1-piperidinyl)-4-pyrimidinamine] | high affinities | high affinities |
| Cc1c(N2CCCCCC2)nc(C2CC2)nc1N1CC(O)C1 [Compound 189, 1-(6-azepan-1-yl-2-cyclopropyl-5-methylpyrimidin-4-yl)azetidin-3-ol] | high affinities | high affinities |
| Cc1c(NCc2c(F)cccc2F)nc(C2CC2)nc1NC1CC1 [Compound 132, N^4,2-dicyclopropyl-N^6-(2,6-difluorobenzyl)-5-methyl-4,6-pyrimidinediamine] | high affinities | high affinities |
| C1CCCN(c2nc(C3CC3)nc3c2CCCN3)CC1 [Compound 155, 4-azepan-1-yl-2-cyclopropyl-5,6,7,8-tetrahydro-pyrido[2,3-d]pyrimidine] | high affinities | high affinities |
| C1CCCN(c2nc(C3CC3)nc3c2CCCCN3)CC1 [Compound 156, 4-azepan-1-yl-2-cyclopropyl-6,7,8,9-tetrahydro-pyrimido[4,5-b]azepine] | high affinities | high affinities |
| Cc1c(NC2CC2)nc(C2CC2)nc1N1CCCC1 [Compound 180, N,2-dicyclopropyl-5-methyl-6-(1-pyrrolidinyl)-4-pyrimidinamine] | high affinities | high affinities |
| Cc1c(NC2CC2)nc(C2CC2)nc1N1CCC(C)(C)CC1 [Compound 79, N,2-dicyclopropyl-6-(4,4-dimethyl-1-piperidinyl)-5-methyl-4-pyrimidinamine] | high affinities | high affinities |
| Brc1c(NC2CC2)nc(C2CC2)nc1N1CCCCCC1 [Compound 61, 6-azepan-1-yl-5-bromo-N,2-dicyclopropyl-4-pyrimidinamine] | high affinities | high affinities |
| Cc1c(NC2CC2)nc(C2CCCC2)nc1N1CCCCCC1 [Compound 154, 6-(1-azepanyl)-2-cyclopentyl-N-cyclopropyl-5-methyl-4-pyrimidinamine] | high affinities | high affinities |
| Cc1c(N2CCCCCC2)nc(C2CC2)nc1N1CCC1 [Compound 184, 1-(6-azetidin-1-yl-2-cyclopropyl-5-methylpyrimidin-4-yl)azepane] | high affinities | high affinities |
| Cc1c(NC2CC2)nc(C2CC2)nc1N1CCC(F)(F)CC1 [Compound 78, N,2-dicyclopropyl-6-(4,4-difluoro-1-piperidinyl)-5-methyl-4-pyrimidinamine] | high affinities | high affinities |
| c1c(N2CCCCCC2)nc(C2CC2)nc1N1CCC1 [Compound 192, 1-(6-azetidin-1-yl-2-cyclopropylpyrimidin-4-yl)azepane] | high affinities | high affinities |
| CCc1c(NC2CC2)nc(C2CC2)nc1N1CCC(C)CC1 [Compound 94, N,2-dicyclopropyl-5-ethyl-6-(4-methyl-1-piperidinyl)-4-pyrimidinamine] | high affinities | high affinities |
| Cc1c(NC2CC2)nc(C2CC2)nc1N1CCC(C)CC1 [Compound 95, N,2-dicyclopropyl-5-methyl-6-(4-methyl-1-piperidinyl)-4-pyrimidinamine] | high affinities | high affinities |
| Cc1c(NC2CC2)nc(C2CC2C)nc1N1CCCCCC1 (single isomer, unassigned) [Compound 67, 6-(1-azepanyl)-N-cyclopropyl-5-methyl-2-(2-methylcyclopropyl)-4-pyrimidinamine] | high affinities | high affinities |
| Cc1c(NC2CC2)nc(C2CC2)nc1N1CCCCCCC1 [Compound 72, 6-(1-azocanyl)-N,2-dicyclopropyl-5-methyl-4-pyrimidinamine] | high affinities | high affinities |
| Cc1c(NC2CC2)nc(C2CC2)nc1N1CC2CCC(CC2)C1 [Compound 176, 6-(3-azabicyclo[3.2.2]non-3-yl)-N,2-dicyclopropyl-5-methyl-4-pyrimidinamine] | high affinities | high affinities |
| CC1CN(c2cc(N3CCCCCC3)nc(C3CC3)n2)C1 [Compound 191, 1-[2-cyclopropyl-6-(3-methylazetidin-1-yl)pyrimidin-4-yl]azepane] | high affinities | high affinities |
| Cc1c(N2CCCCCC2)nc(C2CC2)nc1N1CC(F)C1 [Compound 194, 1-[2-cyclopropyl-6-(3-fluoroazetidin-1-yl)-5-methylpyrimidin-4-yl]azepane] | high affinities | high affinities |
| Cc1c(NC2CCC(C)CC2)nc(C2CC2)nc1NC1CC1 (stereo not drawn) [Compound 145, N^4,2-dicyclopropyl-5-methyl-N^6-(4-methylcyclohexyl)-4,6-pyrimidinediamine] | high affinities | high affinities |
| Fc1c(NC2CC2)nc(C2CC2)nc1N1CCCCCC1 [Compound 60, 6-(1-azepanyl)-N,2-dicyclopropyl-5-fluoro-4-pyrimidinamine] | high affinities | high affinities |
| c1c(NC2CC2)nc(C2CC2)nc1N1CCCCCC1 [Compound 62, 6-(1-azepanyl)-N,2-dicyclopropyl-4-pyrimidinamine] | high affinities | high affinities |
